Measured values reported in patent US20090118285A1, “USE OF KCNQ-OPENERS FOR TREATING OR REDUCING THE SYMPTOMS OF SCHIZOPHRENIA” (H. Lundbeck A/S, priority 2006, published 2009).

Legend:
[1] = Inhibition of baseline motility in vehicle-pretreated, vehicle-challenged mice; conditions: NMRI, mouse, in vivo
[2] = tested on: conditioned avoidance response in rats; assay: Conditioned avoidance response in rats; format: in vivo, rat; conditions: rats
From the text: In the conditioned avoidance response (CAR) model, rats are trained to respond to a stimulus within a fixed time by moving from one place to another in order to avoid a footshock. Antipsychotics selectively suppress the avoidance response within a certain dose-range without suppressing escape behavior elicited by the appearance of the footshock. The CAR model is considered to be a predictive and reliable animal model that is sensitive to compounds with an antipsychotic potential.
Subjects. Male Wistar rats (Taconic, Denmark) weighing 150 g at the beginning of the study are used. The rats are housed ii pairs and maintained on a 12 h light/dark cycle (lights on 06:00). The animals are fed once daily (approx. 6 pellets/rat) in order to keep the rats at 80% of their free-feeding weight. Water is available ad libitum. Temperature (21±1° C.) and relative humidity (55±5%) are automatically controlled.
Experimental procedure. Conditioned avoidance testing is conducted using four automated shuttle-boxes (ENV-010M, MED-Associates) each placed in a sound-attenuated chamber. Each box is divided into two compartments by a partition with an opening. The position of the animal and crossings from one compartment to the other are detected by two photocells placed on either side of the dividing wall. Upon presentation of the conditioned stimuli (CS), tone and light, the animals have 10 s to cross to the other compartment of the shuttle-box in order to turn the CS off (end the trial) and avoid the appearance of the unconditioned stimulus (UCS). If the rat remains in the same compartment for more than 10 s, the UCS is presented as 0.5 mA scrambled foot-shocks until escape is performed or 10 s in maximal duration. The following behavioural variables are evaluated: avoidance (response to CS within 10 s); escape (response to CS+UCS); escape failures (failure to respond); intertrial crosses and locomotor activity. The rats are habituated to the shuttle-box 3 min before each test session. During training each test session consists of 30 trials with intertrial intervals varying randomly between 20 s and 30 s. Training is carried until the rats display an avoidance of 80% or more, on 3 consecutive days. A test is preceded by a pre-test the day before giving rise to a baseline value for each animal, thus the animals serve as their own control. Seven to eight rats are used at each dose level. A parallel control group receiving the vehicle of the test compound is also included.
Administration of compound.
Statistical analyses. The effects of compounds on avoidance and escape failure behaviours were statistically evaluated by means of a two-way repeated measures ANOVA followed by post hoc comparisons (Student-Newman-Keuls Method) when appropriate. P-levels <0.05 were considered statistically significant.

DA neurons in the VTA = assay: Spontaneous DA cell firing in the VTA of anaesthetised rats (in vivo electrophysiology); design: species or system rat; conditions: mean ± SEM
From the text: In the mesolimbic system, all clinically used neuroleptics initially increase the firing rate of dopaminergic neurons (Tung et al., 1991, J. Neural Transm. Gen Sect., 84(1-2), 53-64,). After chronic administration, such neuroleptics eventually (after 3-4 weeks of treatment) decrease the firing rate to below pre-treatment levels (Skarsfeldt 1992, Synapse, 10, 25-33; White and Wang 1983, Science, 221, 1054-1057). This inhibitory effect on dopaminergic neurones, which is believed to be mediated by a depolarization blockade, is thought to be of therapeutic significance to the antipsychotic effect of neuroleptics (Grace and Bunney 1986, J. Pharmacol. Exp. Ther. 238, 1092-1100). […] The presence of KCNQ subunits on DA neurons in the VTA in rodents is well-documented but their functionality is unknown (Saganich et al. 2001, J. Neurosci. 21(13)4609-4624; Cooper et al. 2001, J. Neurosci., 21(24)9529-9540).
Subjects. Male Wistar rats (Harlan, The Netherlands) weighing 270-340 g were used. The animals were housed under a 12-hr light/dark cycle under controlled conditions for regular in-door temperature (21±2° C.) and humidity (55±5%) with food and tap water available ad libitum.
Experimental procedure. The rats were anaesthetised with an intraperitoneal injection of chloral hydrate (400 mg/kg). A femoral vein catheter was then inserted for supplementary anaesthetic injections (100 mg/kg) and drug administration. Animals were then mounted in a stereotaxic frame, the skull was exposed, and a hole (0.5×0.5 cm) was drilled above the ventral tegmental area. Extracellular single-cell recordings were performed using electrodes pulled from glass capillaries and filled with 2% Pontamine Sky Blue in 2 M NaCl. The tip of the electrode was broken under microscopic control, yielding an impedance of 2.0-8.0 MΩ at 135 Hz. The electrode was then lowered into the brain, using a hydraulic microdrive, aimed at the following coordinates: 5.5-5.0 mm posterior to Bregma; 0.5-0.9 mm lateral to the midline. Extracellular action potentials were amplified, discriminated and monitored on an oscilloscope and an audiomonitor. Discriminated spikes were collected and analysed using Spike 2 software (Cambridge Electronic Design Ltd., Cambridge, UK) on a PC-based system connected to a CED 1401 interface unit (Cambridge Electronic Design Ltd.). Presumed dopaminergic neurons were typically found 7.0-8.5 mm beneath the brain surface and were characterised by (1) a slow and irregular firing pattern (0.5-10 Hz), and (2) triphasic action potentials with a predominant positive component, a negative component followed by a minor positive component, with an overall duration >2.5 ms (Bunney et al. 1973, J. Pharmacol. Exp. Ther., 185, 560-571.).
Administration of compounds. […] These i.v. doses match the s.c. dose range of 0-10 mg/kg.
Statistical analysis. Drug effects were assessed by statistical comparison of the mean firing rate calculated from the 2-3 min period immediately before the first drug administration (baseline) to the mean firing rate calculated from at least 60 s at the maximal drug effect. Data were analysed statistically by a one-way ANOVA followed by Student-Newman-Keuls posthoc test. A p-value less than 0.05 was considered significant.

With CCOC(=O)Nc1ccc(NCc2ccc(F)cc2)cc1N the ED50 at 30 min [1] was 7.6 mg/kg, the “% inhibition of avoidance. Relative to baseline.” value ([2]; 5 mg/kg s.c. 30 min before the test) was 1% and the “% inhibition of avoidance. Relative to baseline.” value ([2]; 10 mg/kg s.c. 30 min before the test) was 59%. The “Escape failures (effect on motor performance)” value ([2]; all tested doses, data not shown) was “None of the tested doses caused any incidences of escape failures”, the “Spontaneous DA cell firing rate” value (DA neurons in the VTA; cumulated dose 0.3 mg/kg i.v.) was 95.4 ± 5.0 (4) percentage of baseline firing rate and the “Spontaneous DA cell firing rate” value (DA neurons in the VTA; cumulated dose 1.0 mg/kg i.v.) was 90.5 ± 4.6 (5) percentage of baseline firing rate. For the same molecule, the “Spontaneous DA cell firing rate” value (DA neurons in the VTA; cumulated dose 2.0 mg/kg i.v.) was 81.1 ± 5.1 (5) percentage of baseline firing rate, the “Spontaneous DA cell firing rate” value (DA neurons in the VTA; cumulated dose 4.0 mg/kg i.v.) was 67.1 ± 3.7 (4) percentage of baseline firing rate and the “Spontaneous DA cell firing rate” value (DA neurons in the VTA; cumulated dose 6.0 mg/kg i.v.) was 60.6 ± 0.7 (2) percentage of baseline firing rate.
